Source: US7294646B2, “Maxi-k channel blockers, methods of use and process for making the same” (Merck & Co. Inc., priority 2002, dated 2007)

How the values were obtained:
[1] = molecular target: T1, Maxi-K channel (alpha and beta1 subunits) (Homo sapiens, UniProt Q12791); experiment: FRET (VIPR) membrane potential assay in HEK-293 cells transfected with alpha and beta1 subunits of the maxi-K channel; format: cell-based
T1 construct: expressed in transfected cells
Description: The identification of inhibitors of the Maxi-K channel is based on the ability of expressed Maxi-K channels to set cellular resting potential after transfection of both alpha and beta1 subunits of the channel in HEK-293 cells and after being incubated with potassium channel blockers that selectively eliminate the endogenous potassium conductances of HEK-293 cells. In the absence of Maxi-K channel inhibitors, the transfected HEK-293 cells display a hyperpolarized membrane potential, negative inside, close to EK (−80 mV) which is a consequence of the activity of Maxi-K channels. Blockade of the Maxi-K channel by incubation with Maxi-K channel blockers will cause cell depolarization. Changes in membrane potential can be determined with voltage-sensitive fluorescence resonance energy transfer (FRET) dye pairs that use two components, a donor coumarin (CC2DMPE) and an acceptor oxanol (DiSBAC2(3)).
Oxanol is a lipophilic anion and distributes across the membrane according to membrane potential. Under normal conditions, when the inside of the cell is negative with respect to the outside, oxanol is accumulated at the outer leaflet of the membrane and excitation of coumarin will cause FRET to occur. Conditions that lead to membrane depolarization will cause the oxanol to redistribute to the inside of the cell, and, as a consequence, a decrease in FRET. […]

[2] = molecular target: T2, high-conductance calcium-activated potassium (Maxi-K) channels (Homo sapiens, UniProt Q12791); experiment: Patch clamp recordings of Maxi-K channel currents in excised inside-out membrane patches; format: cell-based; settings: 1 nM concentration applied to internal side of excised inside-out patch; held at -80 mV, steps to +50 mV
T2 construct: expressed in transfected cells; host or cells: CHO cells (α alone) or HEK293 cells (α and β1)
T2 sequence (Q12791 whole entry): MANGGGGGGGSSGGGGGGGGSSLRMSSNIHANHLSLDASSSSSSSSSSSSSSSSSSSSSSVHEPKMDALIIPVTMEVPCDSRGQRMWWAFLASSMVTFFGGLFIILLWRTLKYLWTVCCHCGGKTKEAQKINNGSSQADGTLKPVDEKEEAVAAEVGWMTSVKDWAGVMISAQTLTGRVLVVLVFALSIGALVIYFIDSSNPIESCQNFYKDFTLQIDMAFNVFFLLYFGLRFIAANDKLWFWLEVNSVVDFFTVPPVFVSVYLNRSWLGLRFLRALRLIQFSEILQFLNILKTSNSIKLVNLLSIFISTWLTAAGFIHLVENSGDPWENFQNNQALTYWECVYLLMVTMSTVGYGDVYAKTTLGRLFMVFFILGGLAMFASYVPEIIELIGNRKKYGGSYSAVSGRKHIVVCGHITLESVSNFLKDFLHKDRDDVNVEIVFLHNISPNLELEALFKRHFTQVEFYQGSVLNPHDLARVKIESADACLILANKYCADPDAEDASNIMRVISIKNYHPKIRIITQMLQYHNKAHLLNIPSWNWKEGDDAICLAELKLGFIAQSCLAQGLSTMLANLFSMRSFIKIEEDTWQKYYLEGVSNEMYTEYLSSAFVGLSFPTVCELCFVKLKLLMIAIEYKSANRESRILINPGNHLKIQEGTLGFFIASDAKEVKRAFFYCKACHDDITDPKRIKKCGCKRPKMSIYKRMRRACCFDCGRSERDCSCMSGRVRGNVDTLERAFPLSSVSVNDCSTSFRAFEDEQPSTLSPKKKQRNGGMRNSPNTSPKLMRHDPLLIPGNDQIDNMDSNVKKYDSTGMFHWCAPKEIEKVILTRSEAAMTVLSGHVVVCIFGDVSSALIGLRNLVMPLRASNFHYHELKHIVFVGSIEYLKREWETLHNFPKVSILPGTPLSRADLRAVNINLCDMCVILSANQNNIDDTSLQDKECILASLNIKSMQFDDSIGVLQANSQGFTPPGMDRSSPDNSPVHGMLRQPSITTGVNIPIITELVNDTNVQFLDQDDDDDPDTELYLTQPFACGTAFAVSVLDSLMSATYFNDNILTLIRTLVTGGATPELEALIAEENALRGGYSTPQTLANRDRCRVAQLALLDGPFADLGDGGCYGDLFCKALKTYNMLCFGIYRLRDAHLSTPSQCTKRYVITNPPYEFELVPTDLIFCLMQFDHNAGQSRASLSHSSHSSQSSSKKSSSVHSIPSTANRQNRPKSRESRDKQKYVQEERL
Text: Electrophysiological Assays of Compound Effects on High-conductance Calcium-activated Potassium Channels
Patch clamp recordings of currents flowing through high-conductance calcium-activated potassium (Maxi-K) channels were made from membrane patches excised from CHO cells constitutively expressing the α-subunit of the Maxi-K channel or HEK293 cells constitutively expressing both α- and β1-subunits using conventional techniques (Hamill et al., 1981, Pflügers Archiv. 391, 85-100) at room temperature. Glass capillary tubing (Garner #7052) was pulled in two stages to yield micropipettes with tip diameters of approximately 1-2 microns. Pipettes were typically filled with solutions containing (mM): 150 KCl, 10 Hepes (4-(2-hydroxyethyl)-1-piperazine […]), 1 Mg, 0.01 Ca, and adjusted to pH 7.20 with 3.7 mM KOH. After forming a high resistance (>10^9 ohms) seal between the plasma membrane and the pipette, the pipette was withdrawn from the cell, forming an excised inside-out membrane patch. […]
The effects of the compounds of the present invention on Maxi-K channels were examined in excised inside-out membrane patches. […] The fraction of channels blocked in each experiment was calculated from the reduction in peak current caused by application of the specified compound to the internal side of the membrane patch. […]

[3] = test system: Normotensive Dutch Belted rabbits; experiment: Intraocular pressure (IOP) measurements in rabbits; format: in vivo, rabbit; settings: for reduction of IOP: 25 μl, normal Dutch Belted rabbits; for ocular hypotensive response (significance): all doses (0.5, 0.1 and 0.01%); for ocular hypotensive response (significance) / contralateral effect on IOP (fellow eye): topical, Dutch Belted rabbits; for contralateral effect on IOP (fellow eye): all doses tested (0.5, 0.1 and 0.01%)
Description: Intraocular Pressure (IOP) Measurements in Rabbits
Normotensive Dutch Belted rabbits (2.3 kg) of either sex were maintained on a 12-hour light/dark cycle during these experiments. Intraocular pressure (IOP) was measured using a calibrated pneumatonometer (Alcon Applanation Pneumatonograph), and results expressed in millimeters of mercury (mmHg). Before tonometry, one drop of 0.05% proparacaine was applied to the corneas to minimize any discomfort to the animal. Two base-line (control) readings were taken at (−0.5 and 0 hr.) after which Compounds I, Ia or II were administered topically (unilaterally applied into the conjunctival sac) in a 25 μl volume with the contralateral (fellow) eye receiving an equal volume of vehicle. A masked design was utilized, where the person involved in drug administration and measurement of IOP had no knowledge of the solutions' contents. Subsequently, IOP measurements were taken at 0.5, 1, 2, 3, 4, 5 and 6 hr after topical applications of drug. At the end of each day's measurements, stability of the tonometer was determined using the calibrator/verifier.

[4] = 0.01% unilateral topical application
[5] = 0.1% unilateral topical application
[6] = 0.5% unilateral topical application

T1 sequence (Q12791 whole entry): as above
T1 sequence (Q16558 whole entry partner): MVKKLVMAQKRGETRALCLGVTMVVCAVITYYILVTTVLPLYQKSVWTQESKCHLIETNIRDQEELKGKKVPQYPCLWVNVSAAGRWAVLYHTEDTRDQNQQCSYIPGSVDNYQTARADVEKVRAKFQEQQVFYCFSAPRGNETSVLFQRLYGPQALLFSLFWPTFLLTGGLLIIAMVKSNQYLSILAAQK

Row | SMILES | IC50 [1] [µM] | decrease in Maxi-K channel currents [2] [%] | reduction of IOP [3, 4] [mmHg] | reduction of IOP [3, 5] [mmHg] | reduction of IOP [3, 6] [mmHg] | ocular hypotensive response (significance) [3] | contralateral effect on IOP (fellow eye) [3]
1 | CC(C)C[C@@H](C(=O)O[C@H]1C[C@H]2Cc3c([nH]c4ccccc34)[C@]2(C)[C@@]2(C)CC[C@@]34O[C@@H](C(=O)C=C3[C@]12O)C(C)(C)O4)N(C)C [Compound Ia] | ≤ 0.1 | 88 | 3 | 3.3 | 3.7 | significant | significant contralateral effect
2 | CC(C)[C@@H](C(=O)O[C@H]1C[C@H]2Cc3c([nH]c4ccccc34)[C@]2(C)[C@@]2(C)CC[C@@]34O[C@@H](C(=O)C=C3[C@]12O)C(C)(C)O4)N(C)C [Ib] | ≤ 0.1 |  | 3 | 3.3 | 3.7 | significant | significant contralateral effect
